Experiments:
Rattus norvegicus [1] = assay: Inhibition of d-amphetamine induced stereotypy in rats; i.p. treatment 5 hr before amphetamine.; format: functional
Rattus norvegicus [2] = assay: Inhibition of d-amphetamine induced stereotypy in rats; i.p. treatment 1 hr before amphetamine.; format: functional
Rattus norvegicus [3] = assay: Inhibition of d-amphetamine induced stereotypy in rats; i.p. treatment 24 hr before amphetamine.; format: functional
Rattus norvegicus [4] = organism: Rattus norvegicus; assay: animal or person; details: ip
Rattus norvegicus [5] = organism: Rattus norvegicus; assay: animal or person; details: ip; remark: listed apart in the source
Rattus norvegicus [6] = organism: Rattus norvegicus; assay: animal or person; details: ip; remark: listed apart in the source
[7] = Rattus norvegicus, ip, read-out: ED50

| Compound | ED50 (Rattus norvegicus [1]; [7]) | ED50 (Rattus norvegicus [2]; [7]) | ED50 (Rattus norvegicus [3]; [7]) | further results |
| --- | --- | --- | --- | --- |
| COc1ccc(/C=C/CCN2CC[C@@H]3[C@@H](C2)c2cc(F)ccc2N3c2ccc(F)cc2)cc1 | ~0.32 mg/kg | > 3.2 mg/kg | ~0.32 mg/kg | – |
| Fc1ccc(/C=C/CCN2CC[C@@H]3[C@@H](C2)c2cc(F)ccc2N3c2ccc(F)cc2)cc1 | 0.57 mg/kg | > 1 mg/kg | 0.57 mg/kg | – |
| OC(CCCN1CC[C@@H]2[C@@H](C1)c1ccccc1N2c1ccc(F)cc1)c1ccc(F)cc1 (some centres not stated) | 0.032 mg/kg | ~0.32 mg/kg | 0.032 mg/kg | – |
| OCCCCN1CC[C@@H]2[C@@H](C1)c1cc(F)ccc1N2c1ccc(F)cc1 | 0.009 mg/kg | 0.03 mg/kg | ~1 mg/kg | – |
| Fc1ccc(N2c3ccc(F)cc3[C@@H]3CNCC[C@H]32)cc1 | > 3.2 mg/kg | > 3.2 mg/kg | – | – |
| CCN1CC[C@@H]2[C@@H](C1)c1cc(F)ccc1N2c1ccc(F)cc1 | 0.18 mg/kg | 0.14 mg/kg | > 10 mg/kg | – |
| OC(CCCN1CC[C@H]2[C@@H](C1)c1ccccc1N2c1ccccc1)c1ccc(F)cc1 (some centres not stated) | > 32 mg/kg | > 32 mg/kg | – | – |
| OC(CCCN1CC[C@H]2[C@@H](C1)c1cc(F)ccc1N2c1ccc(F)cc1)c1ccc(F)cc1 (some centres not stated) | 1.1 mg/kg | 22 mg/kg | 9.1 mg/kg | – |
| CN1CC[C@H]2[C@@H](C1)c1ccccc1N2c1ccccc1 | > 32 mg/kg | > 32 mg/kg | – | – |
| c1ccc(CN2CC[C@H]3[C@@H](C2)c2ccccc2N3c2ccccc2)cc1 | > 32 mg/kg | > 32 mg/kg | – | – |
| OC(CCCN1CC[C@@H]2[C@@H](C1)c1cc(F)ccc1N2c1ccc(F)cc1)c1ccc(F)cc1 (some centres not stated) | 0.03 mg/kg | 0.41 mg/kg | 0.03 mg/kg | – |
| COc1ccc(C(O)CCCN2CC[C@@H]3[C@@H](C2)c2cc(F)ccc2N3c2ccc(F)cc2)cc1 (some centres not stated) | 0.01 mg/kg | 0.36 mg/kg | 0.1 mg/kg | – |
| CN1CC[C@@H]2[C@@H](C1)c1cc(F)ccc1N2c1ccc(F)cc1 | 0.23 mg/kg | 0.14 mg/kg | > 3.2 mg/kg | – |
| c1ccc(N2c3ccccc3[C@@H]3CNCC[C@@H]32)cc1 | > 32 mg/kg | > 32 mg/kg | – | – |
| O=C(CCCN1CC[C@@H]2[C@@H](C1)c1cc(F)ccc1N2c1ccc(F)cc1)c1ccc(F)cc1 | 0.1 mg/kg | > 1 mg/kg | 0.03 mg/kg | – |
| OC(CCCN1CC[C@@H]2[C@@H](C1)c1cc(F)ccc1N2c1ccc(F)cc1)c1ccccc1 (some centres not stated) | – | 0.18 mg/kg | 0.18 mg/kg | ED50 (Rattus norvegicus [1]; ip): 0.18 mg/kg |
| OC(CCCN1CC[C@@H]2[C@@H](C1)c1cc(F)ccc1N2c1ccccc1)c1ccc(F)cc1 (stereo in doubt; 24) | – | – | – | ED50 (Rattus norvegicus [1]): 0.08 mg/kg; ED50 (Rattus norvegicus [2]): 0.23 mg/kg; ED50 (Rattus norvegicus [3]): 0.11 mg/kg |
| OC(CCCN1CC[C@@H]2[C@@H](C1)c1cc(F)ccc1N2c1ccccc1)c1ccc(F)cc1 (stereo in doubt; 25) | – | – | – | ED50 (Rattus norvegicus [1]): ~0.032 mg/kg; ED50 (Rattus norvegicus [2]): 0.1 mg/kg; ED50 (Rattus norvegicus [3]): 0.032 mg/kg |
| CN1CC[C@@H]2Nc3ccccc3[C@@H]2C1 [CARBIDINE] | > 32 mg/kg | > 32 mg/kg | – | – |
| OC(CCCN1CCc2c(c3cc(F)ccc3n2-c2ccc(F)cc2)C1)c1ccc(F)cc1 (configuration not stated) [FLUTROLINE] | 0.1 mg/kg | 0.1 mg/kg | 0.32 mg/kg | – |
| O=C(CCCN1CCC(O)(c2ccc(Cl)cc2)CC1)c1ccc(F)cc1 [HALOPERIDOL] | – | – | – | ED50 (Rattus norvegicus [4]): 0.1 mg/kg; ED50 (Rattus norvegicus [5]): 0.1 mg/kg; ED50 (Rattus norvegicus [6]): > 3.2 mg/kg |

Source: ChEMBL document CHEMBL1123474, “Neuroleptics from the 4a,9b-cis- and 4a,9b-trans-2,3,4,4a,5,9b-hexahydro-1H-pyrido[4,3-b]indole series. 2” (J Med Chem, 1986)
